This is an account of results in patent US12306194B2, “Reagent for fluorescence imaging of lipid droplets in cell and tissue” (NATIONAL UNIVERSITY CORPORATION GUNMA UNIVERSITY, priority 2019, dated 2025).

Data set [1] deals with lipid droplets in HeLa cells. Description: Fluorescence imaging of lipid droplets in oleic acid-treated HeLa cells. The class given is cell-based. From the text:
Since LipiDye requires use of an excitation wavelength of about 405 nm, there is a concern about phototoxicity to cells in cases of long observation.

Data set [2] deals with 3T3-L1 cells (adipocytes). Put plainly: Intracellular retention property in 3T3-L1 cells. The class given is cell-based. As for the experimental part: (§1) Using a fluorescence microscope (IX71, manufactured by Olympus Corporation), fluorescence imaging images of cells were acquired over time, and the photostability (It/I0) and the retention property were measured.
For evaluation of the intracellular retention property of each reagent, each fluorescent reagent was added to 3T3-L1 cells (adipocytes) to a final concentration of 100 nM (for Lipi-Green, 500 nM), and imaging images were acquired after 30 minutes of culture and 24 hours after washing away of the reagent.

The subject of data set [3] is 3T3-L1 cells (adipocytes). Put plainly: Intracellular photostability under excitation light in 3T3-L1 cells. The class given is cell-based. As to conditions: summary grade, Table 3. As for the experimental part:
as §1
The photostability and the retention property are important factors in long-term measurement for, for example, tracing the processes of formation, fusion, and degradation of lipid droplets. Each fluorescent reagent was added to 3T3-L1 cells (adipocytes) to a final concentration of 100 nM, and the cells were cultured for 30 minutes. After washing the cells, the cells were irradiated with an excitation light required for imaging (450 to 500 nm; for LipiDye, an excitation wavelength of 400 to 440 nm), to evaluate the photostability. By regarding the time immediately after the irradiation as Second 0, imaging images were acquired at 20-second intervals for analysis of the image intensity.

Data set [4] can be described thus: Measurement of fluorescence lifetime in solvents. The class given is physicochemical. As for the experimental part: The fluorescence lifetime (τf) of each compound in each solvent was measured using a compact fluorescence lifetime measurement apparatus (Quntaurus-Tau, manufactured by Hamamatsu Photonics K.K.).
Data set [5] can be described thus: Measurement of maximum absorption wavelength, maximum fluorescence wavelength and fluorescence quantum yield in solvents. The class given is physicochemical. As for the experimental part:
Using a luminescent quantum yield measurement apparatus ([…]-01, manufactured by Hamamatsu Photonics K.K.), the maximum absorption wavelength (λabs/nm), the maximum fluorescence wavelength (λflu/nm), and the fluorescence quantum yield (Φf) of the compound in each solvent were measured. The absorption spectrum was measured using an ultraviolet and visible spectrophotometer (Ubest-550, manufactured by JASCO Corporation), and the fluorescence emission spectrum was measured using a fluorescence spectrophotometer (F-7000, manufactured by Hitachi, Ltd.)

[6] abbreviates: 100 nM (Lipi-Green 500 nM), 3T3-L1 cells, 24 hours after washing away of the reagent.

For `CC1=CC(C)=[N+]2C1=C(C)c1c(C)cc(C)n1[B-]2(F)F` [BODIPY493/503], in data set [1] (summary grade, Table 3), the Brightness in cells result was “Δ” and the “Selectivity for lipid droplets” value was “◯”. In addition, the intracellular retention property result in data set [2] (setting [6]) is reported as “remarkable decreases in the fluorescence intensity”.

For `CCN(CC)c1ccc2nc3c4ccccc4c(=O)cc-3oc2c1` [Nile Red], the Photostability entry in data set [3] is “Δ”. Moreover, the “imaging of lipid droplets / lipid droplet selectivity in HeLa cells” value in data set [1] (100 nM reagent, 30 minutes, 400 μM oleic acid 48 hours) is “low lipid droplet selectivity”. In data set [1] (100 nM reagent, 30 minutes, compared with BODIPY493/503 or Lipi Green), the “fluorescence intensity of HeLa cells” value was “higher fluorescence intensities”. In addition, the Brightness in cells result in data set [1] (summary grade, Table 3) is given as “◯”. Moreover, the intracellular retention property result was “remarkable decreases in the fluorescence intensity” in data set [2] (setting [6]) and “Δ” in data set [2] (summary grade, Table 3).

Consider `CCN(CC)c1ccc2cc3cc(-c4nc5ccccc5[nH]4)c(=O)oc3cc2c1` [PC6NH, 3-(1H-Benzo[d]imidazol-2-yl)-8-(diethylamino)-2H-benzo[g]chromen-2-one], for which the “τf (fluorescence lifetime)” value in data set [4] (in Bu2O (dibutyl ether)) came to 2.79 ns. The “τf (fluorescence lifetime)” value in data set [4] (in MeCN) is 3.78 ns. Also, in data set [5] (in Bu2O (dibutyl ether)), the “Φf (fluorescence quantum yield)” value turned out to be 0.89, the “λmax abs (maximum absorption wavelength)” value was determined as 458 nm and the “λmax flu (maximum fluorescence wavelength)” value (“λmax flu” for short) stood at 523 nm. For the same compound, in data set [5] (in MeCN), the “Φf (fluorescence quantum yield)” value is on record as 0.82, the “λmax abs (maximum absorption wavelength)” value came out at 477 nm and the “λmax flu” value came out at 604 nm.

For `CCN(CC)c1ccc2cc3cc(-c4nc5ccccc5n4C)c(=O)oc3cc2c1` [PC6NMe, 8-(Diethylamino)-3-(1-methyl-1H-benzo[d]imidazol-2-yl)-2H-benzo[g]chromen-2-one], the “τf (fluorescence lifetime)” value was 3.53 ns in data set [4] (in Bu2O (dibutyl ether)) and 4.08 ns in data set [4] (in MeCN). Moreover, the “Φf (fluorescence quantum yield)” value is 0.67 in data set [5] (in Bu2O (dibutyl ether)) and 0.77 in data set [5] (in MeCN). Moreover, the “λmax abs (maximum absorption wavelength)” value is recorded as 438 nm in data set [5] (in Bu2O (dibutyl ether)) and 449 nm in data set [5] (in MeCN). Moreover, the results for the “λmax flu” value in data set [5] (in Bu2O (dibutyl ether)) and in data set [5] (in MeCN) were 512 nm and 590 nm, respectively.

As for `CCN(CC)c1ccc2cc3cc(-c4nc5ccccc5o4)c(=O)oc3cc2c1` [PC6O, 3-(Benzo[d]oxazol-2-yl)-8-(diethylamino)-2H-benzo[g]chromen-2-one], the “τf (fluorescence lifetime)” value in data set [4] (in Bu2O (dibutyl ether)) turned out to be 2.83 ns. Also, the “τf (fluorescence lifetime)” value in data set [4] (in MeCN) is on record as 3.70 ns. For the same compound, in data set [5] (in Bu2O (dibutyl ether)), the “Φf (fluorescence quantum yield)” value is 0.86, the “λmax abs (maximum absorption wavelength)” value turned out to be 460 nm and the “λmax flu” value is 530 nm. Moreover, in data set [5] (in MeCN), the “Φf (fluorescence quantum yield)” value was 0.80, the “λmax abs (maximum absorption wavelength)” value is reported as 478 nm and the “λmax flu” value stood at 613 nm.
